We go through 4 molecules from the NIST ThermoML archive (doi:10.1021/je060002k).

SMILES strings stand for the structures. Numbers after ± are expanded uncertainties.

For the data set the following is noted: Liquid.

Usually vapor or sublimation pressure stands for the equilibrium pressure above the liquid or solid. Turning to `CC(C)CC(C)(C)C` [2,2,4-trimethylpentane], under “372.35 K”, the “vapor or sublimation pressure” value was 101.33 ± 3 kPa.

For `Cc1ccccc1` [toluene], the “vapor or sublimation pressure” value (383.75 K) amounted to 101.33 ± 3 kPa.

For the molecule `CCCCCC` [hexane], the “vapor or sublimation pressure” value (341.85 K) is reported as 101.33 ± 3 kPa.

Regarding `CCO` [ethanol], the “vapor or sublimation pressure” value (351.45 K) is given as 101.33 ± 3 kPa.
